The values below come from paper PMC3292467, “Comparison between ^68Ga-bombesin (^68Ga-BZH3) and the cRGD tetramer ^68Ga-RGD4 studies in an experimental nude rat model with a neuroendocrine pancreatic tumor cell line” (EJNMMI Research, 2011).

One data set has as its system BB1 (Neuromedin B). The following applies: background statement; no reference given; cited from earlier work. From the text:
(§1) Objectives Receptor scintigraphy gains more interest for diagnosis and treatment of tumors, in particular for neuroendocrine tumors (NET). We used a pan-Bombesin analog, the peptide DOTA-PEG2-[D-tyr^6, β-Ala^11, Thi^13, Nle^14] BN(6-14) amide (BZH3). BZH3 binds to at least three receptor subtypes: the BB1 (Neuromedin B), BB2 (Gastrin-releasing peptide, GRP), and BB3. Imaging of ανβ3 integrin expression playing an important role in angiogenesis and metastasis was accomplished with a ^68Ga-RGD tetramer. […] We have reported ^68Ga-labeled bombesin may be helpful for diagnostic reasons in a subgroup of patients ...

For data set [1], the system named is gastrin-releasing peptide receptor (GRP-r, also known as BB2). As to conditions: background statement; no reference given; cited from earlier work.
Text: as §1

Data set [2] has as its system bombesin receptor subtype (BB3). As to conditions: background statement; no reference given; cited from earlier work.
Text: as §1

The next data set relates to gliomas. The following applies: compared with ^68Ga-DOTATOC in meningiomas, ref [47]; cited from earlier work. From the text:
Concerning the ^68Ga-BZH3 kinetics, k1 is a parameter that reflects the receptor binding and k3 is a parameter that reflects the internalization of the tracer.

For data set [3], the system named is gastrointestinal stromal tumors. As to conditions: ref [15], cited from earlier work. From the text:
Bombesin and the two mammalian bombesin-like peptides, […] regulate many biologic response processes through activation of distinct receptor subtypes, including modulation of smooth muscle contraction, secretion of neuropeptides and hormones, as well as stimulation of cell growth. Activation of neuromedin B (BB1) receptors has been reported in various human cancers.

For data set [4] the following is noted: 3D fused PET-CT images; male rat. As to the method:
The study included nine AR 42 J tumor-bearing nude rats. We grouped all rats according to PET tracers (B, ^68Ga-BZH3 and R, ^68Ga-RGD4), used in dynamic PET scanning, as noted in Table 1. Dynamic PET studies were performed for 60 min after the intravenous application of 10 to 30 MBq ^68Ga-RGD4 or 20 to 40 MBq ^68Ga-BZH3, using a 28-frame protocol (ten frames of 30 s, five frames of 60 s, five frames of 120 s, and eight frames of 300 s). Two animals can be examined in parallel per scanning by a homemade injector (Figure 2). A dedicated PET-CT system (Biograph™ mCT, 128 S/X, Siemens Co, Erlangen, Germany) with an axial field of view of 21.6 cm with TrueV, operated in a three-dimensional mode, was used for all animal studies. The system provides the simultaneous acquisition of 369 transverse slices with a slice thickness of 0.6 mm. The animals were positioned in the axial plane of the system to maintain the best resolution in the center of the system. […] The SUV images were used for all further quantitative evaluations.
Dynamic PET data were evaluated using the software package PMOD (provided courtesy of PMOD Technologies Ltd., Zuerich, Switzerland). Areas with enhanced tracer uptake on transaxial, coronal, and sagittal images were evaluated visually. […] A detailed quantitative evaluation of tracer kinetics requires the use of compartmental modeling. […]

A short description of data set [5]: Dynamic PET, tumor uptake (SUV) in AR42J tumor-bearing nude rats. The class given is in vivo, rat. As to conditions: rat, in vivo, iv, i.v. 20 to 40 MBq (BZH3, n = 5), 10 to 30 MBq (RGD4, n = 4), nude rats, read-out: SUV (standardized uptake value) in tumor. From the text:
(§2) Irregular regions of interest were drawn manually.

For data set [6], the system named is AR42J tumor. Described as above. The class given is in vivo, rat. The following applies: for SUV (standardized uptake value) in tumor: 55 to 60 min post-injection, i.v. 20 to 40 MBq (BZH3, n = 5), 10 to 30 MBq (RGD4, n = 4), nude rats.
Text: as §2

Data set [7] has as its system AR42J tumor. As to conditions: for VB (vessel density, fractional blood volume) / K1 (transport into the cell; associated with receptor binding) / RBP (receptor binding potential) / k2 (displacement from the receptor) / k3 (cellular internalisation) / k4 (externalization): AR42J tumor-bearing nude rats, n = 5 (BZH3), n = 4 (RGD4); for VB (vessel density, fractional blood volume): dynamic PET 60 min, i.v. As to the method: The AR42J cell line, derived from a rat exocrine pancreas neuroendocrine tumor, was used. Cells were obtained from the European Collection of Cell Cultures and were grown in RPMI 1640 medium supplemented with 2 mmol/L glutamine and 10% fetal calf serum. Adherent cells were dislodged with trypsin/ethylenediaminetetraacetic acid (0.02%: 0.05%, w/v). For PET-studies, 5 × 10^6 cells in 200 μl RPMI without supplements were inoculated subcutaneously in the right hind leg of Wistar rats.
The study included nine AR 42 J tumor-bearing nude rats. We grouped all rats according to PET tracers (B, ^68Ga-BZH3 and R, ^68Ga-RGD4), used in dynamic PET scanning, as noted in Table 1. Dynamic PET studies were performed for 60 min after the intravenous application of 10 to 30 MBq ^68Ga-RGD4 or 20 to 40 MBq ^68Ga-BZH3, using a 28-frame protocol (ten frames of 30 s, five frames of 60 s, five frames of 120 s, and eight frames of 300 s). Two animals can be examined in parallel per scanning by a homemade injector (Figure 2). A dedicated PET-CT system (Biograph™ mCT, 128 S/X, Siemens Co, Erlangen, Germany) with an axial field of view of 21.6 cm with TrueV, operated in a three-dimensional mode, was used for all animal studies. The system provides the simultaneous acquisition of 369 transverse slices with a slice thickness of 0.6 mm. The animals were positioned in the axial plane of the system to maintain the best resolution in the center of the system. All PET images were attenuation-corrected and an image matrix of 400 × 400 pixels was used for iterative image reconstruction (voxel size 1.565 × 1.565 × 0.6 mm) based on the syngo MI PET/CT 2009C software version. After the end of the dynamic series an ultrahigh resolution CT with 85 mA, 80 kV and a pitch of 0.85 cm was performed for attenuation correction of the acquired dynamic emission data. The reconstructed images were converted to SUV images based on the formula [24]: SUV = Tissue concentration (becquerel per gram)/[injected dose ([…]))/body weight (gram)]. The SUV 55 to 60 min post-injection was used for the assessment of both tracers. The SUV images were used for all further quantitative evaluations.
Dynamic PET data were evaluated using the software package PMOD (provided courtesy of PMOD Technologies Ltd., Zuerich, Switzerland). Areas with enhanced tracer uptake on transaxial, coronal, and sagittal images were evaluated visually. A volume of interest consists of several regions of interest over the target area. Irregular regions of interest were drawn manually. A detailed quantitative evaluation of tracer kinetics requires the use of compartmental modeling. A two-tissue-compartment model was used to evaluate the dynamic studies.
In animals, a partial volume correction must be applied to the data due to the small size of the input and tumor volumes of interest (VOIs). Herein, the recovery coefficient was 0.85 for a diameter of 8 mm and 0.32 for a diameter of 3 mm based on phantom measurements as well as the recent parameter settings used with the reconstruction software. For the input function the mean values of the VOI data obtained from the heart were used. We used a preprocessing tool, which allowed a fit of the input curve by a sum of up to three decaying exponentials. The learning-machine two-tissue-compartment model was used for the fitting and provided five parameters: the transport parameters for tracer into and out of the cell, K1 and k2, the parameters for phosphorylation and dephosphorylation of intracellular tracer, k3 and k4, and the fractional blood volume, also called vessel density (VB), which reflects the amount of blood in the VOI. Following compartment analysis, we calculated the global influx of tracer from the compartment data using the formula: influx = (K1 × k3)/(k2 + k3). […] The model parameters were accepted when K1 - k4 was less than 1 and VB exceeded 0. The unit for the rate constants K1 to k4 was 1/min.

[8] abbreviates: median, between tracers P 0.05*.

“Also recorded” adds a separate entry of the source. Like-named read-outs stand apart in the source and are kept apart here. Square brackets hold non-standard residues; d marks the D form. Peptide text beside a SMILES is read from it. * marks the point of attachment. DOTA = O=C(O)CN1CCN(CC(=O)O)CCN(CC(=O)*)CCN(CC(=O)O)CC1; 2Thi = N[C@@H](Cc1cccs1)C(=O)O; Nle = CCCC[C@H](N)C(=O)O; AEEA = NCCOCCOCC(=O)O; βAla = NCCC(=O)O

Consider Bombesin [reference compound], for which, in the data set with BB1 (Neuromedin B), the “binding/affinity for BB1” value was “high affinity”. In data set [1], the “binding/affinity for BB2” value is listed as “high affinity”. For the same compound, in data set [2], the “binding/affinity for BB3” value was “high affinity”.
In the case of `CCCC[C@H](NC(=O)[C@H](Cc1cccs1)NC(=O)[C@H](Cc1c[nH]cn1)NC(=O)CCNC(=O)[C@@H](NC(=O)[C@H](C)NC(=O)[C@H](Cc1c[nH]c2ccccc12)NC(=O)[C@H](CCC(N)=O)NC(=O)[C@@H](Cc1ccc(O)cc1)NC(=O)COCCOCCNC(=O)COCCOCCNC(=O)CN1CCN(CC(=O)O)CCN(CC(=O)O)CCN(CC(=O)O)CC1)C(C)C)C(N)=O` [^68Ga-BZH3, DOTA-PEG2-[D-Tyr^6 -β-Ala^11 -Thi^13 -Nle^14]BN(6-14) amide, metal not drawn] ({DOTA-AEEA-AEEA}-[dY]QWAV[βAla]H[2Thi][Nle]-NH2), the “internalization” value in the data set with gliomas is “higher internalization”. Further, the “receptor binding” value in the data set on gliomas is reported as “lower receptor binding”. The “uptake compared with ^18F-FDG” value in data set [3] is “lower than ^18F-FDG”. Further, in data set [3] (subgroup of patients), the “uptake in gastrointestinal stromal tumors” value is given as “enhanced ^68Ga-BZH3 uptake in a subgroup of patients with gastrointestinal stromal tumors”. Also, in [4], the “tracer uptake in other sites” value was “liver, kidney, urinary bladder, and testicles”. Also, the SUV in data set [5] (mean, 55 to 60 min post-injection) stood at 1.08 SUV; in data set [5] (median, 55 (56) to 60 min post-injection, between tracers P 0.8065) it was 1.19 SUV. Further, the “tumor visualisation” value with AR42J tumor [6] (3D fused PET-CT image, tumor in lower leg) was “clearly showed enhanced ^68Ga-BZH3 uptake in the tumor area in the lower leg”. For the same compound, the “tumor uptake compared with the other tracer” value in the data set on AR42J tumor [6] (^68Ga-BZH3 vs ^68Ga-RGD4, AR42J tumor-bearing nude rats) is “generally higher than ^68Ga-RGD4 uptake; also recorded: higher than that of ^68Ga-RGD4”. The figures for the “SUV (standardized uptake value) in tumor” value in the data set with AR42J tumor [6] (maximum) and in the data set on AR42J tumor [6] (minimum) were 1.2884 and 0.8628, respectively. The “FD, VB, K1 and RBP compared between tracers” value with AR42J tumor [7] (^68Ga-BZH3 vs ^68Ga-RGD tetramer) was “generally higher than the corresponding values for the ^68Ga-RGD tetramer”. The “VB (vessel density, fractional blood volume)” value came to 0.1646 in the data set on AR42J tumor [7] (maximum), 0.1037 in the data set with AR42J tumor [7] (mean), 0.0903 with AR42J tumor [7] (setting [8]) and 0.0603 in the data set with AR42J tumor [7] (minimum). The “K1 (transport into the cell; associated with receptor binding)” value with AR42J tumor [7] (maximum) stood at 0.4862 min⁻¹; with AR42J tumor [7] (mean), 0.3717 min⁻¹; in the data set with AR42J tumor [7] (setting [8]), 0.3506 min⁻¹; with AR42J tumor [7] (minimum), 0.3055 min⁻¹. For the same compound, the “RBP (receptor binding potential)” value with AR42J tumor [7] (maximum) is recorded as 0.1202; with AR42J tumor [7] (mean) it was 0.0765; in the data set with AR42J tumor [7] (median, between tracers P 0.0275*), 0.0607; with AR42J tumor [7] (minimum) it was 0.0506. The “k2 (displacement from the receptor)” value is 0.6103 min⁻¹ in the data set with AR42J tumor [7] (maximum); 0.4808 min⁻¹ in the data set on AR42J tumor [7] (mean); 0.5216 min⁻¹ in the data set with AR42J tumor [7] (median, between tracers P 0.4624); 0.2768 min⁻¹ in the data set with AR42J tumor [7] (minimum). Also, the “k3 (cellular internalisation)” value in the data set on AR42J tumor [7] (maximum) stood at 0.2005 min⁻¹; with AR42J tumor [7] (mean), 0.1235 min⁻¹; with AR42J tumor [7] (median, between tracers P 0.8065) it was 0.1177 min⁻¹; in the data set on AR42J tumor [7] (minimum) it was 0.0580 min⁻¹. Moreover, the “k4 (externalization)” value turned out to be 0.1746 min⁻¹ in the data set on AR42J tumor [7] (maximum), 0.0986 min⁻¹ with AR42J tumor [7] (mean), 0.1005 min⁻¹ in the data set on AR42J tumor [7] (setting [8]) and 0.0493 min⁻¹ with AR42J tumor [7] (minimum).
For “DOTA-PEG2-[D-Tyr^6 -β-Ala^11 -Thi^13 -Nle^14 ]BN(6-14) amide [BZH3, pan-Bombesin analog, unlabelled precursor]”, the “binding/affinity for BB1” value in the data set on BB1 (Neuromedin B) is “binds”. In addition, the “binding/affinity for BB2” value in data set [1] is on record as “binds”. Also, the “binding/affinity for BB3” value in [2] is reported as “binds”.
